Target: T1, Type II NADH dehydrogenase (Plasmodium falciparum, UniProt Q8I302)
T1 sequence (Q8I302 24-533): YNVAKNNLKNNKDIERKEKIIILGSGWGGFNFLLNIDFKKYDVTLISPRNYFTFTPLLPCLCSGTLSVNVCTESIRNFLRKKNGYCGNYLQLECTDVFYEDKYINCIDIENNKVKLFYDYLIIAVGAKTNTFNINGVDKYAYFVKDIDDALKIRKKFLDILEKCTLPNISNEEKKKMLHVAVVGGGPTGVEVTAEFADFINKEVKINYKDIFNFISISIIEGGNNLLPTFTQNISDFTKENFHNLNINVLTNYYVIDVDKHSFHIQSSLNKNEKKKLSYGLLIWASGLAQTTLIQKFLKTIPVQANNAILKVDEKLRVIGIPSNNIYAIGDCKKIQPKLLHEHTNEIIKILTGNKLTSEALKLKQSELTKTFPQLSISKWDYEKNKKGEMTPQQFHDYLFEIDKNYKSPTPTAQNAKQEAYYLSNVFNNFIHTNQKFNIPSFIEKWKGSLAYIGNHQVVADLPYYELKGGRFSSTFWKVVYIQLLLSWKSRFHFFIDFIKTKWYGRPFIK
Experiment: NADH oxidation at […] nm, parasite cell-free extract
Assay type: biochemical
Settings: concentration not given

Structure (SMILES) | NADH oxidation at 340 nm, parasite cell-free extract (inhibitor of MQ-4-dependent NADH oxidation) | NADH oxidation at 340 nm, parasite cell-free extract (electron acceptor with NADH)
c1ccc2c(c1)[I+]c1ccccc1-2 [DPI, diphenylene iodonium chloride] | sensitive to diphenylene iodonium chloride (DPI), a classical Type II NADH:dehydrogenase inhibitor | –
CCCCCCCCCCC1=C(C)C(=O)C(OC)=C(OC)C1=O [decylubiquinone] | – | Without MQ-4 or decylubiquinone addition no NADH oxidation was observed

Source: article PMC4784480 (FEBS letters, 2010)
